How the values were obtained:
hSTING-R232 = hSTING-R232 (Homo sapiens (Human), UniProt Q86WV6, H232R); assay: STING differential scanning fluorimetry (DSF) assay, WT human STING; details: WT (R232) human STING aa140-379, net shift in melting temperature
Method: A STING DSF assay was performed to determine protein thermostability shift in response to small molecule ligand binding. A STING thermostability shift assay based on differential scanning fluorimetry was used to measure (1) the net shift in melting temperature (ΔTm)between the apo and ligand-bound states of the STING protein and (2) the concentration of the thermal denaturation transition (EC50) as a surrogate measure of binding affinity (K). […] Protein in assay buffer was transferred to a 384 well plate and incubated with the hydrophobic fluorescent dye SYBR Orange. A temperature ramp was applied to the plate and the resulting dye fluorescence was plotted as a function of temperature. The first derivative of this function (dF/dT) was then used to extrapolate the melting temperature of the protein at various concentrations of compound and determine the thermal denaturation profile of a protein/compound complex.
• 1. Protein construct (affinity tag removal vs SUMO-fusion construct) • 2. Protein concentration • 3. Dye concentration • 4. Buffer • 5. Thermal ramp velocity • 6. DMSO tolerance • 7. Compound titration parameters • 8. […] 5 μM purified Target STING Protein • 3. 8 μM Sypro Orange Dye • 4. Buffer: 100 mM NaCl, 30 mM HEPES, pH 7.5 • 5. Thermal Ramp: 0.5° C./min • 6. <1% DMSO • 7. 11 point, 2 fold dilution, duplicate, 300 μM high concentrations • 8.

hSTING-WT = hSTING-WT (Homo sapiens (Human), UniProt Q86WV6, H232R); assay: Radiometric filtration binding competition assay, hSTING-WT
STING protein = STING protein (Homo sapiens (Human), UniProt Q86WV6, H232R); assay: Cell based reporter assay of IRF activation (IRF-luciferase), THP1-dual-KI R232; details: read-out: THP1-dual-KI R232_IRF(Luciferase)_Activity Maximum measured (%)
mSTING = mSTING (Mus musculus, UniProt Q3TBT3); assay: Radiometric filtration binding competition assay, mSTING
Method: A radiometric filtration binding competition assay was performed to quantify the binding affinity of compounds of the present application for the human or mouse STING protein, or associated HAQ human isoform. […] The resulting dose response was fit by non-linear regression to determine an IC50 value, from which a Ki value for each compound was extrapolated.
The resulting complexes were then filtered, dried, and scintillation fluid was added and the remaining radio signal was measured to determine the degree of compound ligand inhibition. This assay format was optimized for both the WT and HAQ isoforms of the human protein and the mouse orthologue protein.
Probe Concentration: Minimum concentration that achieved max assay window • g. Assay Format: Scintillation Proximity Bead or Filtration Binding Plate • h. […] Assay incubation times for successive incubation steps
WT-hSWAT: WT_FBA_HIS-SUMO-hSWAT IC50 (μM) (“WT”=Wild-type); HAQ-hSWAT: HAQ_FBA_HIS-SUMO-hSWAT IC50 (μM) (“HAQ”=human HAQ allele of STING protein); and WT-mSWAT: MOUSE_FBA_HIS-SUMO-mnSWAT IC50 (μM) which is the mouse isoform of STING protein.

mSTING-R232 = mSTING-R232 (Mus musculus, UniProt Q3TBT3); assay: STING differential scanning fluorimetry (DSF) assay, mouse STING; details: net shift in melting temperature

hSTING-R232, sequence (Q86WV6 140-379 H232R): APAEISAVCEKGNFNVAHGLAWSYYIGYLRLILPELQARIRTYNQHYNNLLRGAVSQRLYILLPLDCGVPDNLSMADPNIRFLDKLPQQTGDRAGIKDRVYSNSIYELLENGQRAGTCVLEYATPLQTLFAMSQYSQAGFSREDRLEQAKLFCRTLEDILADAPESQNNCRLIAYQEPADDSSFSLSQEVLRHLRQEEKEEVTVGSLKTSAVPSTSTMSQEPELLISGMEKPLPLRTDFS
hSTING-WT, sequence (Q86WV6 140-379 H232R): as above
STING protein, sequence (Q86WV6 whole entry H232R): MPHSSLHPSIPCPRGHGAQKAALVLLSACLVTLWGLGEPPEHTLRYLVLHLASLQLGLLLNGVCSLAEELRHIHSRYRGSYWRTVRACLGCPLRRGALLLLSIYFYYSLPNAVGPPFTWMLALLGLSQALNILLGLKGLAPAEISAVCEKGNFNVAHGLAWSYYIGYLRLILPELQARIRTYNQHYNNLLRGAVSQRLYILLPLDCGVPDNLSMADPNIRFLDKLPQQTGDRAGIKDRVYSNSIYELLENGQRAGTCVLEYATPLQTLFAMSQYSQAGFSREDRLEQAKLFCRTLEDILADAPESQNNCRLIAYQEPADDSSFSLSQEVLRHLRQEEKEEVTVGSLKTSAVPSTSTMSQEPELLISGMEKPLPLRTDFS

Row | Compound | WT_DSF_hSWAT Tm Shift (° C.) (hSTING-R232) | IC50 (hSTING-WT) [µM] | Emax (STING protein) [%] | IC50 (mSTING) [µM] | MOUSE DSF_6xHIS-SUMO Tm Shift (° C.) (mSTING-R232)
1 | COc1c(Cl)ccc2c(=O)c3ccc(Nc4cccc(O)c4)cc3n(CC(=O)O)c12 [Compound 235] | D (“D” > 7° C.) | < 20 | < 5 | < 20 | D (“D” > 15° C.)
2 | CCN(C)c1c(Cl)ccc2c(=O)c3ccc(C)cc3n(CC(=O)O)c12 [Compound 307] | D (“D” > 7° C.) | 20 to 100 | > 50 | 20 to 100 | D (“D” > 15° C.)
3 | CSc1c(Cl)ccc2c(=O)c3ccc(Nc4cnccn4)cc3n(CC(=O)O)c12 [Compound 291] | D (“D” > 7° C.) | < 20 | < 5 | < 20 | D (“D” > 15° C.)
4 | CN(C)c1c(Cl)ccc2c(=O)c3ccc(C(C)(C)C)cc3n(CC(=O)O)c12 [Compound 324] | D (“D” > 7° C.) | < 20 | > 50 | < 20 | D (“D” > 15° C.)
5 | CC(=O)COc1c(Cl)ccc2c(=O)c3ccccc3n(CC(=O)O)c12 [Compound 312] | B (“B” = 0-2° C.) | > 300 | < 5 | > 300 | B (“B” = 0-5° C.)
6 | CS(=O)(=O)Nc1cccc(Nc2ccc3c(=O)c4ccc(Cl)c(Cl)c4n(CC(=O)O)c3c2)c1 [Compound 257] | D (“D” > 7° C.) | 20 to 100 | < 5 | < 20 | D (“D” > 15° C.)
7 | COc1c(Cl)ccc2c(=O)c3ccc(NC4CCCC4)cc3n(CC(=O)O)c12 [Compound 293] | D (“D” > 7° C.) | < 20 | > 50 | < 20 | D (“D” > 15° C.)
8 | COc1c(Cl)cc(O)c2c(=O)c3ccccc3n(CC(=O)O)c12 [Compound 314] | C (“C” = 2-7° C,) | > 300 | > 50 | 100 to 300 | C (“C” = 5-15° C.)
9 | COc1ccccc1Nc1ccc2c(=O)c3ccc(Cl)c(OC)c3n(CC(=O)O)c2c1 [Compound 298] | D (“D” > 7° C.) | 20 to 100 | > 50 | < 20 | D (“D” > 15° C.)
10 | O=C(O)Cn1c2ccccc2c(=O)c2ccc(Cl)c(OCCCO)c21 [Compound 329] | B (“B” = 0-2° C.) | > 300 | < 5 | > 300 | C (“C” = 5-15° C.)
11 | COc1c(Cl)ccc2c(=O)c3ccc(Nc4cnccn4)cc3n(CC(=O)O)c12 [Compound 263] | D (“D” > 7° C.) | 20 to 100 | < 5 | < 20 | D (“D” > 15° C.)
12 | C[C@@H](O)COc1c(Cl)ccc2c(=O)c3ccccc3n(CC(=O)O)c12 [Compound 323] | D (“D” > 7° C.) | < 20 | < 5 | < 20 | D (“D” > 15° C.)
13 | CN(Cc1ccccc1)c1c(Cl)ccc2c(=O)c3ccccc3n(CC(=O)O)c12 [Compound 310] | A (“A” < 0° C.) | 100 to 300 | 5 to 25 | > 300 | A (“A” < 0° C.)
14 | CC(C)c1ccc2c(=O)c3ccc(Cl)c(-c4ccccc4)c3n(CC(=O)O)c2c1 [Compound 289] | D (“D” > 7° C.) | < 20 | > 50 | < 20 | C (“C” = 5-15° C.)
15 | CCOc1c(Cl)ccc2c(=O)c3ccc(CC)cc3n(CC(=O)O)c12 [Compound 306] | D (“D” > 7° C.) | < 20 | > 50 | < 20 | D (“D” > 15° C.)
16 | COc1c(Cl)ccc2c(=O)c3ccc(SC(C)C)cc3n(CC(=O)O)c12 [Compound 232] | D (“D” > 7° C.) | 100 to 300 | > 50 | < 20 | D (“D” > 15° C.)
17 | CCSc1ccc2c(=O)c3ccc(Cl)c(OC)c3n(CC(=O)O)c2c1 [Compound 231] | D (“D” > 7° C.) | 20 to 100 | > 50 | < 20 | D (“D” > 15° C.)
18 | CC(C)Oc1c(Cl)ccc2c(=O)c3ccc(C(C)(C)C)cc3n(CC(=O)O)c12 [Compound 225] | D (“D” > 7° C.) | < 20 | > 50 | 20 to 100 | D (“D” > 15° C.)

Row | Compound | WT_DSF_hSWAT Tm Shift (° C.) (hSTING-R232) | IC50 (hSTING-WT) [µM] | Emax (STING protein) [%] | IC50 (mSTING) [µM] | MOUSE DSF_6xHIS-SUMO Tm Shift (° C.) (mSTING-R232)
19 | COc1c(Cl)ccc2c(=O)c3ccc(-c4ccc(O)cc4)cc3n(CC(=O)O)c12 [Compound 269] | D (“D” > 7° C.) | < 20 | > 50 | < 20 | D (“D” > 15° C.)
20 | CCc1ccc2c(=O)c3ccc(Cl)c(OC)c3n(CC(=O)O)c2c1 [Compound 294] | D (“D” > 7° C.) | 20 to 100 | > 50 | 20 to 100 | C (“C” = 5-15° C.)
21 | O=C(O)Cn1c2cc(-c3ccc(Cl)cc3)ccc2c(=O)c2ccc(Cl)c(Cl)c21 [Compound 156] | B (“B” = 0-2° C.) | 100 to 300 | < 5 | < 20 | C (“C” = 5-15° C.)
22 | COc1cc2c(=O)c3ccc(Cl)c(OC)c3n(CC(=O)O)c2cc1C(C)C [Compound 318] | C (“C” = 2-7° C,) | 100 to 300 | 5 to 25 | > 300 | B (“B” = 0-5° C.)
23 | COc1cccc2c(=O)c3ccc(Cl)c(OC)c3n(CC(=O)O)c12 [Compound 333] | B (“B” = 0-2° C.) | > 300 | 5 to 25 | > 300 | B (“B” = 0-5° C.)
24 | COc1c(Cl)ccc2c(=O)c3ccc(Nc4ccc(F)cc4)cc3n(CC(=O)O)c12 [Compound 250] | D (“D” > 7° C.) | < 20 | > 50 | < 20 | D (“D” > 15° C.)
25 | O=C(O)Cn1c2ccccc2c(=O)c2ccc(Cl)c(OCCO)c21 [Compound 328] | B (“B” = 0-2° C.) | > 300 | < 5 | > 300 | C (“C” = 5-15° C.)
26 | COc1c(Cl)ccc2c(=O)c3ccc(Nc4ccc(Cl)cc4)cc3n(CC(=O)O)c12 [Compound 251] | D (“D” > 7° C.) | 20 to 100 | 25 to 50 | < 20 | D (“D” > 15° C.)
27 | O=C(O)Cn1c2cc(-c3cccc(F)c3)ccc2c(=O)c2ccc(Cl)c(Cl)c21 [Compound 152] | C (“C” = 2-7° C,) | 20 to 100 | 5 to 25 | 20 to 100 | C (“C” = 5-15° C.)
28 | O=C(O)Cn1c2cc(Nc3ccccc3)ccc2c(=O)c2ccc(Cl)c(Br)c21 [Compound 206] | D (“D” > 7° C.) | 20 to 100 |  | < 20 | D (“D” > 15° C.)
29 | O=C(O)Cn1c2cc(NC3CCC3)ccc2c(=O)c2ccc(Cl)c(Br)c21 [Compound 175] | D (“D” > 7° C.) | 20 to 100 | > 50 |  | D (“D” > 15° C.)
30 | CC(C)(C)CNc1ccc2c(=O)c3ccc(Cl)c(Br)c3n(CC(=O)O)c2c1 [Compound 148] | C (“C” = 2-7° C,) | 20 to 100 | 25 to 50 |  | C (“C” = 5-15° C.)
31 | CC(C)c1ccc2c(=O)c3ccc(C#N)c(Cl)c3n(CC(=O)O)c2c1 [Compound 145] | A (“A” < 0° C.) | 100 to 300 | < 5 |  | A (“A” < 0° C.)
32 | O=C(O)Cn1c2cc(-c3ccncc3)ccc2c(=O)c2ccc(Cl)c(Cl)c21 [Compound 189] | C (“C” = 2-7° C,) | 100 to 300 | 5 to 25 |  | C (“C” = 5-15° C.)
33 | Cc1cccc2c(=O)c3cccc(C)c3n(CC(=O)O)c12 [Compound 132] | A (“A” < 0° C.) | 100 to 300 | < 5 |  | A (“A” < 0° C.)
34 | CC1CCC(Nc2ccc3c(=O)c4ccc(Cl)c(Cl)c4n(CC(=O)O)c3c2)CC1 (stereo not drawn) [Compound 140] | C (“C” = 2-7° C,) | 20 to 100 | 5 to 25 |  | D (“D” > 15° C.)
35 | COc1c(Cl)ccc2c(=O)c3ccccc3n(CC(=O)O)c12 [Compound 178] | C (“C” = 2-7° C,) | > 300 |  | > 300 | C (“C” = 5-15° C.)
36 | Cc1ccc2c(=O)c3ccc(Cl)cc3n(C(C)C(=O)O)c2c1 (stereo not drawn) [Compound 171] | A (“A” < 0° C.) | > 300 | < 5 |  | B (“B” = 0-5° C.)
